Where two headings read alike, the source gives them in different places. One block for each compound: values may come before it.
Experiments:
[1] = target: T1, NcNEPS3A (Nepeta cataria, UniProt A0A7D3QLP1, V206Q); assay: end-point GC-MS coupled assay; type: biochemical; settings: with 7S-ISY and 8-oxogeranial; NADPH, 5 mM NAD+; pH 8, 30 °C
T1 construct: pOPINF, His-tagged; E. coli SoluBL21; Ni-NTA purified

[2] = target: T2, NmNEPS3 (Nepeta racemosa, UniProt A0A3Q8GLE8, Q206V); settings: nepetalactol formed in situ by the enzyme from ISY product; NADPH, 5 mM NAD+; pH 8, 30 °C
T2 construct: gene NEPS3

[3] = target: T3, NmNEPS3 (Nepeta racemosa, UniProt A0A3Q8GLE8); settings: with 7S-ISY and 8-oxogeranial; pH 8, 30 °C; cyclization of 8-oxocitronellyl enol
T3 construct: gene NEPS3

[4] = target: T4, NcNEPS3A (Nepeta cataria, UniProt A0A7D3QLP1); assay: end-point GC-MS coupled assay; type: biochemical; settings: nepetalactol formed in situ by the enzyme from ISY product; NADPH, 5 mM NAD+; pH 8, 30 °C
T4 construct: pOPINF, His-tagged; E. coli SoluBL21; Ni-NTA purified

[5] = target: T5, NmNEPS4 (Nepeta racemosa, UniProt A0A7D3UJX6); assay: end-point GC-MS coupled assay; type: biochemical; settings: nepetalactol formed in situ with 7S-ISY; NADPH, 5 mM NAD+; pH 8, 30 °C
T5 construct: pOPINF, His-tagged; E. coli SoluBL21; Ni-NTA purified
T5 sequence (A0A7D3UJX6 1-274): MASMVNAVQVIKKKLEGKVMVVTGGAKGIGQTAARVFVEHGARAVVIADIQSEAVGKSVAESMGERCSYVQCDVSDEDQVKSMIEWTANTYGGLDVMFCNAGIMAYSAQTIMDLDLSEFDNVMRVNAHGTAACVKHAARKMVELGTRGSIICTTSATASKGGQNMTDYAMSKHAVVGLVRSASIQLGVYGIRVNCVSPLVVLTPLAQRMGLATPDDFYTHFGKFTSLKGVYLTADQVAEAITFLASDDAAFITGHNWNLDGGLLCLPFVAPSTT

[6] = target: T6, NmNEPS1 (Nepeta racemosa, UniProt A0A3Q8GL18); settings: NADPH, 5 mM NAD+, pH 8, 30 °C
T6 construct: gene NEPS1
T6 sequence (A0A3Q8GL18 whole entry): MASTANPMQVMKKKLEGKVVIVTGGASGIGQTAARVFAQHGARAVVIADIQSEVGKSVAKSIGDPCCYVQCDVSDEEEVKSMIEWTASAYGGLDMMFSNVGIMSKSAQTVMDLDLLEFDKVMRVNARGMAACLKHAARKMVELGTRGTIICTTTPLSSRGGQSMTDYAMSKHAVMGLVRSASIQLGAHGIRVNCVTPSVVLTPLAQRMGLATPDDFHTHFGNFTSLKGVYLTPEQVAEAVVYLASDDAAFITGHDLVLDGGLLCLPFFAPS

T2 sequence (A0A3Q8GLE8 whole entry Q206V): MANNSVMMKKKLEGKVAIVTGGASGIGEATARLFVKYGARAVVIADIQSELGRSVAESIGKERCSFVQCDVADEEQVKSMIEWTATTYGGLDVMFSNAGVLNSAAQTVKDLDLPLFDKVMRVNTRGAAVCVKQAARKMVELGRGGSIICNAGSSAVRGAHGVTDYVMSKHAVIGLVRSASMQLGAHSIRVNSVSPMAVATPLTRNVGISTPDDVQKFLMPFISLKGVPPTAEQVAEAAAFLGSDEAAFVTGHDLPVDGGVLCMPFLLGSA
T3 sequence (A0A3Q8GLE8 whole entry): as the sequence (A0A3Q8GLE8 whole entry Q206V) above, with V206Q counted along it
T4 sequence (A0A7D3QLP1 entry or part of it): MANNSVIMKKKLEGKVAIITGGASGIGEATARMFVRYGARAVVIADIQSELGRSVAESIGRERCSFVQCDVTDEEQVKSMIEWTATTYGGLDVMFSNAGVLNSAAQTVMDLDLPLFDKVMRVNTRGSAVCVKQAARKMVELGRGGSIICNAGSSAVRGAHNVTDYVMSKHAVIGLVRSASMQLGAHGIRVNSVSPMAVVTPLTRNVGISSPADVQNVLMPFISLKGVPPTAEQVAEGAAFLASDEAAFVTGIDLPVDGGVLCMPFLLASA
T1 sequence (A0A7D3QLP1 entry or part of it V206Q): as the sequence (A0A7D3QLP1 entry or part of it) above, with V206Q counted along it

end-point GC-MS coupled assay [1]: NcNEPS3A-V206Q produces only 3b
Structure (SMILES): CC1=COC(O)[C@H]2[C@@H](C)CC[C@@H]12 (stereo partly drawn) [3b, 7S-cis-cis nepetalactol]
end-point GC-MS coupled assay [2]: NmNEPS3-Q206V mutant has restored oxidation activity | end-point GC-MS coupled assay [3]: NmNEPS3 (N. mussinii), which produces 7S-cis-cis nepetalactol 3b | end-point GC-MS coupled assay [4]: only NcNEPS3A can oxidize 7S-cis-cis nepetalactol 3b

end-point GC-MS coupled assay [5]: NmNEPS4 can only oxidize 3a (Fig. 3A)
Structure (SMILES): CC1=COC(O)[C@H]2[C@@H]1CC[C@@H]2C (stereo partly drawn) [3a, 7S-cis-trans nepetalactol]
end-point GC-MS coupled assay ([6]; nepetalactol formed in situ with 7S-ISY): NmNEPS1 is able to oxidize both 3c and 7S-cis-trans nepetalactol 3a

Structure (SMILES): CC1=COC(O)[C@@H]2[C@@H]1CC[C@@H]2C (stereo partly drawn) [3c, 7S-trans-cis nepetalactol]
end-point GC-MS coupled assay ([6]; nepetalactol formed in situ with 7S-ISY and cyclase): NmNEPS1 is able to oxidize both 3c and 7S-cis-trans nepetalactol 3a

Source: paper PMC9372074, “Biocatalytic routes to stereo-divergent iridoids” (Nature Communications, 2022)
